Assay results reported in patent US20240317777A1, “NOVEL MACROCYCLIC AMINOPYRAZOLE COMPOUNDS AS CDK2 INHIBITORS” (Accutar Biotechnology Inc., priority 2023, published 2024).
Read-outs that look alike come from different tables or passages of the source.

What was measured:
CCNE1-normal SKOV3 cells = test: Cell growth inhibition of CCNE1-normal SKOV3 cells (CellTiter-Glo); format: cell-based; settings: Homo sapiens, SK-OV-3, 144 h, 6 days
In short: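 Growth was measured by CellTiter-Glo luminescence after 6 days' compound exposure at 37 °C. Cells were plated one day before dosing at 1000 per well in medium with 10% FBS, and compounds were diluted from DMSO stocks.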

[1] = tested on: CCNE1-amplified OVCAR3 cells; test: Cell growth inhibition of CCNE1-amplified OVCAR3 cells (CellTiter-Glo); format: cell-based; settings: Homo sapiens, OVCAR-3, 144 h, 6 days
In short: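 Growth read-out was CellTiter-Glo luminescence, taken after 10 min at room temperature at the end of a 6-day compound exposure at 37 °C. Compounds were diluted from DMSO stocks across various concentrations.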

CDK4-CYCLIN D1 = CDK4-CYCLIN D1 (Homo sapiens, UniProt P11802); test: CDK protein kinase inhibition by ADP-Glo assay, CDK4-CYCLIN D1; format: biochemical; settings: for IC50: read-out: CDK4-CYCLIND1, IC50; for CDK2 Fold selectivity, CDK4: CDK2 versus CDK4; for CDK2 Fold selectivity against CDK4: fold selectivity for CDK2 over CDK4, recombinant CDK kinases
In short: (§1)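 Compounds were incubated at 22° C with the CDK/cyclin complex, peptide substrate, 1000 μM ATP and 5 mM MgCl2. The reaction was then quenched and ADP formation quantified by luminescence using ADP-Glo reagents.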

CDK6-CYCLIN D3 = CDK6-CYCLIN D3 (Homo sapiens, UniProt Q00534); test: CDK protein kinase inhibition by ADP-Glo assay, CDK6-CYCLIN D3; format: biochemical; settings: for IC50: read-out: CDK6-CYCLIND3, IC50; for CDK2 Fold selectivity, CDK6: CDK2 versus CDK6; for CDK2 Fold selectivity against CDK6: fold selectivity for CDK2 over CDK6, recombinant CDK kinases
In short: as §1

[2] = tested on: Phospho-Rb (Ser807/811) in OVCAR3 cells; test: Phospho-Rb expression inhibition in OVCAR3 cells quantified by In Cell Western; format: cell-based; settings: Homo sapiens, OVCAR-3, 24 hours, read-out: OVCAR-3 pRb IC50
In short: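 In-cell western: after 24 h compound exposure at 37° C, fixed OVCAR3 cells co-stained for pRb Ser807/811 (800 nm channel) and total Rb (680 nm channel), imaged by LI-COR Odyssey.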

CDK9-CYCLIN T1 = CDK9-CYCLIN T1 (Homo sapiens, UniProt P50750); test: CDK protein kinase inhibition by ADP-Glo assay, CDK9-CYCLIN T1; format: biochemical; settings: for CDK2 Fold selectivity, CDK9: CDK2 versus CDK9; for CDK2 Fold selectivity against CDK9: fold selectivity for CDK2 over CDK9, recombinant CDK kinases
In short: as §1

CDK1-CYCLIN B = CDK1-CYCLIN B (Homo sapiens, UniProt P06493); test: CDK protein kinase inhibition by ADP-Glo assay, CDK1-CYCLIN B; format: biochemical; settings: for IC50: read-out: CDK1-CYCLINB, IC50; for CDK2 Fold selectivity, CDK1: CDK2 versus CDK1; for CDK2 Fold selectivity against CDK1: fold selectivity for CDK2 over CDK1, recombinant CDK kinases
In short: as §1

CDK2-CYCLIN E1 = CDK2-CYCLIN E1 (Homo sapiens, UniProt P24941); test: CDK protein kinase inhibition by ADP-Glo assay, CDK2-CYCLIN E1; format: biochemical; settings: read-out: CDK2-CYCLINE, IC50
In short: as §1

[3] = Table 35, recombinant CDK kinase
[4] = Table 35, recombinant CDK kinase, read-out: CDK9-CYCLINT1, IC50
[5] = Table 37, recombinant CDK kinase

CDK6-CYCLIN D3, sequence (Q00534 whole entry): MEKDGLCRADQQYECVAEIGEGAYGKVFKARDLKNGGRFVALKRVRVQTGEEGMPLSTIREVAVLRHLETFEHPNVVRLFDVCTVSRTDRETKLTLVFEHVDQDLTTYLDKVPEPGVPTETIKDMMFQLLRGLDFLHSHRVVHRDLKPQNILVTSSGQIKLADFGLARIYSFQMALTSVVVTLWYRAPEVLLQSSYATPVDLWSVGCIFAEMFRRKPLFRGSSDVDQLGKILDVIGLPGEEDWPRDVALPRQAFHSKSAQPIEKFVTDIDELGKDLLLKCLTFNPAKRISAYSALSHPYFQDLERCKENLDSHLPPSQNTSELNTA
CDK6-CYCLIN D3, sequence (P30281 whole entry partner): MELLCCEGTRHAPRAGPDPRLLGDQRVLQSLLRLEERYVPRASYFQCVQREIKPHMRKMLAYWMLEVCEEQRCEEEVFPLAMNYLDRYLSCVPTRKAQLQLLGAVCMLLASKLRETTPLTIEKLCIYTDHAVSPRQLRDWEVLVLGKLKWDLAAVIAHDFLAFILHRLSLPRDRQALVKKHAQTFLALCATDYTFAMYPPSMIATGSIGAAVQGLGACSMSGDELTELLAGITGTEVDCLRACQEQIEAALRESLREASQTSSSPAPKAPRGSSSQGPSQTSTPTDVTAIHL
CDK9-CYCLIN T1, sequence (P50750 whole entry): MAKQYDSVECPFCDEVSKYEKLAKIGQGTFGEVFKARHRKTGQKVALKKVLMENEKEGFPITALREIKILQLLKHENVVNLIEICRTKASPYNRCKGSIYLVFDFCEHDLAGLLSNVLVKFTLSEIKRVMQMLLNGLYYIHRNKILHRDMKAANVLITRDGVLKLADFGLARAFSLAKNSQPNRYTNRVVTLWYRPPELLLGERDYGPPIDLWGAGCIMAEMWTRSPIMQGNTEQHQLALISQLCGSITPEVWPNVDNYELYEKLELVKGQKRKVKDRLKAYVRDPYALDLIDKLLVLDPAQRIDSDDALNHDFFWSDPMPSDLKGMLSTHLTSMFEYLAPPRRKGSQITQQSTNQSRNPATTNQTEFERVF
CDK9-CYCLIN T1, sequence (O60563 whole entry partner): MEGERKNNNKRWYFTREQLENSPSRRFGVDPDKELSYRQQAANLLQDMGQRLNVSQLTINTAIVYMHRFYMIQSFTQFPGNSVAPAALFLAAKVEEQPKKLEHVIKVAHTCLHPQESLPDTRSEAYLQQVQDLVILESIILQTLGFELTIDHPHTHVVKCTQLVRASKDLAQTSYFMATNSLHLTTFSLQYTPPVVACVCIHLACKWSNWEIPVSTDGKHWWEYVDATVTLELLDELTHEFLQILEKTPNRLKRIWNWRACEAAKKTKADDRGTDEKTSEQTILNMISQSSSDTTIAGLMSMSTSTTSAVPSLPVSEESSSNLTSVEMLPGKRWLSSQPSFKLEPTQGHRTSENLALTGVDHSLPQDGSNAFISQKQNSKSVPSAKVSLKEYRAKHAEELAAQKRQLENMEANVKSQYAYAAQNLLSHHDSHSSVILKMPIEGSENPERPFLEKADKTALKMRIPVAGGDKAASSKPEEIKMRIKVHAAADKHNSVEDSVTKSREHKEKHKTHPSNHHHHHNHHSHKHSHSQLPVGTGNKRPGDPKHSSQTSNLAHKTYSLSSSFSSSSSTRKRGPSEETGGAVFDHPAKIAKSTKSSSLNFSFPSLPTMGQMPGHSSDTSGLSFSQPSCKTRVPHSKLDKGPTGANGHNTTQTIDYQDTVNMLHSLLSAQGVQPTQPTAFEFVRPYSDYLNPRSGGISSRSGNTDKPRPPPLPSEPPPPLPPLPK
CDK1-CYCLIN B, sequence (P06493 whole entry): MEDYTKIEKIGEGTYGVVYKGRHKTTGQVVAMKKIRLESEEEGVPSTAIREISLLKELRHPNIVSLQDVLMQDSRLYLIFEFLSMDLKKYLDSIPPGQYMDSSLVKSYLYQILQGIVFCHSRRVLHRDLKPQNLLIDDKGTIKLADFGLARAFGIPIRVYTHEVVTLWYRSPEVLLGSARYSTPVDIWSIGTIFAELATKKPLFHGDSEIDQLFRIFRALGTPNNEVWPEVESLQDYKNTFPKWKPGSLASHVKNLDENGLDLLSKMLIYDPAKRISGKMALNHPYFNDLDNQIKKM
CDK1-CYCLIN B, sequence (P14635 whole entry partner): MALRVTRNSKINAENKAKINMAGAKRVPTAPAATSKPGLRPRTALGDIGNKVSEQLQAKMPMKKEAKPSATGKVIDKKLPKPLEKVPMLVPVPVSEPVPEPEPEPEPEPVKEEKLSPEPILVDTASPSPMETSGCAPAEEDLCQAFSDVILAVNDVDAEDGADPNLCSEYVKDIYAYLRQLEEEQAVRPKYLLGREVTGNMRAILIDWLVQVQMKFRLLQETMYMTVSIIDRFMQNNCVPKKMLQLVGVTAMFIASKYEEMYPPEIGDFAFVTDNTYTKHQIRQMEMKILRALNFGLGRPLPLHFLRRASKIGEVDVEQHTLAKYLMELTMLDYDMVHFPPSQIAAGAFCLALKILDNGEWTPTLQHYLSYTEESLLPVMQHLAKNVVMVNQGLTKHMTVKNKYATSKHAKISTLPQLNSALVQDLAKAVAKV
CDK4-CYCLIN D1, sequence (P11802 whole entry): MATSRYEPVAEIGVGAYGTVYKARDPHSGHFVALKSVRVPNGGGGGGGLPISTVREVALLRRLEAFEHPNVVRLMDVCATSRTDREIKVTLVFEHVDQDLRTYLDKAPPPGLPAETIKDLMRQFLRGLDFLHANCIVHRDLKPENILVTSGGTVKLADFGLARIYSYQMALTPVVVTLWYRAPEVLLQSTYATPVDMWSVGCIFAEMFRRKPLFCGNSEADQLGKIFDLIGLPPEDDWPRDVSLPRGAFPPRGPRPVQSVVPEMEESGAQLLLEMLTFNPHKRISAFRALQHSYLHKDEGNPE
CDK4-CYCLIN D1, sequence (P24385 whole entry partner): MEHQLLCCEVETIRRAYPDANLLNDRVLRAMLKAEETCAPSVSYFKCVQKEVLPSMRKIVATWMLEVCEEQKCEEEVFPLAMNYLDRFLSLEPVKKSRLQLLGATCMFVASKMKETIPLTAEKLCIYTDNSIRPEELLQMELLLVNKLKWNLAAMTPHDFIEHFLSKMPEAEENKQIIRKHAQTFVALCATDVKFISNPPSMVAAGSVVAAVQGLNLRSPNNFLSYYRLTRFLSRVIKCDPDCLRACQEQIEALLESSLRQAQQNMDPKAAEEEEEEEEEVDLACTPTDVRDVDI

IC50 [1] | IC50 [2] | IC50 (CDK4-CYCLIN D1; [3]) | CDK2 Fold selectivity against CDK4 (CDK4-CYCLIN D1; Table 36) | IC50 (CDK6-CYCLIN D3; [3]) | CDK2 Fold selectivity against CDK6 (CDK6-CYCLIN D3; Table 36) | IC50 (CDK9-CYCLIN T1; [4]) | CDK2 Fold selectivity against CDK9 (CDK9-CYCLIN T1; Table 36) | IC50 (CDK1-CYCLIN B; [3]) | CDK2 Fold selectivity against CDK1 (CDK1-CYCLIN B; Table 36) | IC50 (CDK2-CYCLIN E1; [3]) | Structure (SMILES) | IC50 (CCNE1-normal SKOV3 cells) | also measured
50 to 250 nM | 10 to 50 nM | – | – | – | – | – | – | – | – | – | [2H]C1([2H])CC[C@H](C)NC(=O)O[C@@H]2CC[C@@H](C2)c2cc([nH]n2)Nc2ccnc(c2)O1 [Compound 173, (1^1S,1^3R,9S,Z)-9-methyl-2^1H-5,12-dioxa-3,10-diaza-4(4,2)-pyridina-2(3,5)-pyrazola-1(1,3)-cyclopentanacyclododecaphan-11-one-6,6-d2] | > 1250 nM | IC50 (CDK4-CYCLIN D1; ADP-Glo, 1000 μM ATP, Table 27): 100 to 500 nM; CDK2 Fold selectivity, CDK4 (CDK4-CYCLIN D1; Table 28): D (D, >20 and ≤50); IC50 (CDK6-CYCLIN D3; ADP-Glo, 1000 μM ATP, Table 27): > 500 nM; CDK2 Fold selectivity, CDK6 (CDK6-CYCLIN D3; Table 28): D (D, >20 and ≤50); IC50 (CDK9-CYCLIN T1; ADP-Glo, 1000 μM ATP, Table 27, read-out: CDK9-CYCLINT1 IC50): > 500 nM; CDK2 Fold selectivity, CDK9 (CDK9-CYCLIN T1; Table 28): D (D, >20 and ≤50); IC50 (CDK1-CYCLIN B; ADP-Glo, 1000 μM ATP, Table 27): 100 to 500 nM; CDK2 Fold selectivity, CDK1 (CDK1-CYCLIN B; Table 28): E (E, <20); IC50 (CDK2-CYCLIN E1; ADP-Glo, 1000 μM ATP, Table 27): 10 to 50 nM
10 to 50 nM | 10 to 50 nM | – | – | – | – | – | – | – | – | – | C[C@@H]1NC(=O)O[C@@H]2CC[C@@H](C2)c2cc([nH]n2)Nc2ccnc(c2)OCCC1(F)F [Compound 181, (1^1S,1^3R,9S,Z)-8,8-difluoro-9-methyl-2^1H-5,12-dioxa-3,10-diaza-4(4,2)-pyridina-2(3,5)-pyrazola-1(1,3)-cyclopentanacyclododecaphan-11-one] | 250 to 1250 nM | IC50 (CDK4-CYCLIN D1; ADP-Glo, 1000 μM ATP, Table 29): > 500 nM; CDK2 Fold selectivity, CDK4 (CDK4-CYCLIN D1; Table 30): C (C, >50 and ≤100); IC50 (CDK6-CYCLIN D3; ADP-Glo, 1000 μM ATP, Table 29): > 500 nM; CDK2 Fold selectivity, CDK6 (CDK6-CYCLIN D3; Table 30): C (C, >50 and ≤100); IC50 (CDK9-CYCLIN T1; ADP-Glo, 1000 μM ATP, Table 29, read-out: CDK9-CYCLINT1, IC50): 100 to 500 nM; CDK2 Fold selectivity, CDK9 (CDK9-CYCLIN T1; Table 30): D (D, >20 and ≤50); IC50 (CDK1-CYCLIN B; ADP-Glo, 1000 μM ATP, Table 29): 100 to 500 nM; CDK2 Fold selectivity, CDK1 (CDK1-CYCLIN B; Table 30): D (D, >20 and ≤50); IC50 (CDK2-CYCLIN E1; ADP-Glo, 1000 μM ATP, Table 29): ≤ 10 nM
50 to 250 nM | 10 to 50 nM | – | – | – | – | – | – | – | – | – | C[C@H]1CCCOc2cc(ccn2)Nc2[nH]nc(c2F)[C@H]2CC[C@H](C2)OC(=O)N1 [Compound 183, (1^1S,1^3R,9S,E)-2^4-fluoro-9-methyl-2^1H-5,12-dioxa-3,10-diaza-4(4,2)-pyridina-2(3,5)-pyrazola-1(1,3)-cyclopentanacyclododecaphan-11-one] | > 1250 nM | IC50 (CDK4-CYCLIN D1; ADP-Glo, 1000 μM ATP, Table 33): > 500 nM; CDK2 Fold selectivity against CDK4 (CDK4-CYCLIN D1; Table 34): C (C, >50 and ≤100); IC50 (CDK6-CYCLIN D3; ADP-Glo, 1000 μM ATP, Table 33): > 500 nM; CDK2 Fold selectivity against CDK6 (CDK6-CYCLIN D3; Table 34): C (C, >50 and ≤100); IC50 (CDK9-CYCLIN T1; ADP-Glo, 1000 μM ATP, Table 33, read-out: CDK9-CYCLINT1, IC50): > 500 nM; CDK2 Fold selectivity against CDK9 (CDK9-CYCLIN T1; Table 34): B (B, >100 and ≤500); IC50 (CDK1-CYCLIN B; ADP-Glo, 1000 μM ATP, Table 33): > 500 nM; CDK2 Fold selectivity against CDK1 (CDK1-CYCLIN B; Table 34): D (D, >20 and ≤50); IC50 (CDK2-CYCLIN E1; ADP-Glo, 1000 μM ATP, Table 33): 10 to 50 nM
10 to 50 nM | 2 to 10 nM | 100 to 500 nM | C (C, >50 and ≤100) | 100 to 500 nM | C (C, >50 and ≤100) | 100 to 500 nM | C (C, >50 and ≤100) | 50 to 100 nM | E (E, <20) | ≤ 10 nM | C[C@H]1CC(F)(F)COc2cc(ccn2)Nc2cc(n[nH]2)[C@H]2CC[C@H](C2)OC(=O)N1 [Compound 223, (1^1S,1^3R,9S,Z)-7,7-difluoro-9-methyl-2^1H-5,12-dioxa-3,10-diaza-4(4,2)-pyridina-2(3,5)-pyrazola-1(1,3)-cyclopentanacyclododecaphan-11-one] | 250 to 1250 nM | –
10 to 50 nM | 2 to 10 nM | 100 to 500 nM | C (C, >50 and ≤100) | 100 to 500 nM | C (C, >50 and ≤100) | > 500 nM | B (B, >100 and ≤500) | 10 to 50 nM | E (E, <20) | ≤ 10 nM | C[C@H]1CCCOc2cc(ccn2)Nc2cc(n[nH]2)[C@H]2C[C@@H](F)[C@H](C2)OC(=O)N1 [Compound 224, (1^1R,1^3S,1^4R,9S,Z)-1^4-fluoro-9-methyl-2^1H-5,12-dioxa-3,10-diaza-4(4,2)-pyridina-2(3,5)-pyrazola-1(1,3)-cyclopentanacyclododecaphan-11-one] | > 1250 nM | –
10 to 50 nM | 2 to 10 nM | 10 to 50 nM | E (E, <20) | 10 to 50 nM | E (E, <20) | 10 to 50 nM | E (E, <20) | ≤ 10 nM | E (E, <20) | ≤ 10 nM | C[C@H]1CCCOc2cc(ccn2)Nc2cc(n[nH]2)[C@@H]2C[C@H](F)[C@@H](C2)OC(=O)N1 [Compound 225, (1^1S,1^3R,1^4S,9S,Z)-1^4-fluoro-9-methyl-2^1H-5,12-dioxa-3,10-diaza-4(4,2)-pyridina-2(3,5)-pyrazola-1(1,3)-cyclopentanacyclododecaphan-11-one] | 250 to 1250 nM | –
50 to 250 nM | 10 to 50 nM | – | – | – | – | – | – | – | – | – | C[C@H]1CC(F)(F)COc2cc(ccn2)Nc2[nH]nc(c2F)[C@H]2CC[C@H](C2)OC(=O)N1 [Compound 244, (1^1S,1^3R,9S,E)-2^4,7,7-trifluoro-9-methyl-2^1H-5,12-dioxa-3,10-diaza-4(4,2)-pyridina-2(3,5)-pyrazola-1(1,3)-cyclopentanacyclododecaphan-11-one] | > 1250 nM | IC50 (CDK4-CYCLIN D1; [5]): > 500 nM; CDK2 Fold selectivity against CDK4 (CDK4-CYCLIN D1; Table 38): B (B, >100 and ≤500); IC50 (CDK6-CYCLIN D3; [5]): > 500 nM; CDK2 Fold selectivity against CDK6 (CDK6-CYCLIN D3; Table 38): B (B, >100 and ≤500); IC50 (CDK9-CYCLIN T1; Table 37, recombinant CDK kinase, read-out: CDK9-CYCLINT1, IC50): > 500 nM; CDK2 Fold selectivity against CDK9 (CDK9-CYCLIN T1; Table 38): A (A, ≥500); IC50 (CDK1-CYCLIN B; [5]): 100 to 500 nM; CDK2 Fold selectivity against CDK1 (CDK1-CYCLIN B; Table 38): D (D, >20 and ≤50); IC50 (CDK2-CYCLIN E1; [5]): ≤ 10 nM
10 to 50 nM | 2 to 10 nM | – | – | – | – | – | – | – | – | – | C[C@H]1CCCNC(=O)O[C@@H]2CC[C@@H](C2)c2cc([nH]n2)Nc2ccnc(c2)O1 [compound 12] | 250 to 1250 nM | IC50 (CDK4-CYCLIN D1; ADP-Glo, 1000 μM ATP, Table 11): 100 to 500 nM; IC50 (CDK6-CYCLIN D3; ADP-Glo, 1000 μM ATP, Table 11): 100 to 500 nM; IC50 (CDK9-CYCLIN T1; ADP-Glo, 1000 μM ATP, Table 11, read-out: CDK9-CYCLINT1, IC50): 100 to 500 nM; IC50 (CDK1-CYCLIN B; ADP-Glo, 1000 μM ATP, Table 11): 10 to 50 nM; IC50 (CDK2-CYCLIN E1; ADP-Glo, 1000 μM ATP, Table 11): ≤ 10 nM
